Assay results published in publication PMC2579264 (European journal of pharmacology, 2008).
Changes are numbered by the printed parent chain.

How the values were obtained:
[1] = test system: Chinese hamster ovary (CHO) cells; test: Loss of cell protein or detachment of cells after digitonin pretreatment; type: cell-based; details: 10 µM digitonin pretreatment at 25 °C
[2] = test system: neuropeptide Y Y2 receptor; test: Effect of heparin on binding of peptide YY; set-up: species or system human; details: heparin up to 30 µM; cell surface or particulate Y2 receptors
[3] = target: T1, human neuropeptide Y Y2 receptor, wildtype (P^34D^35) (Homo sapiens, UniProt P49146); test: Receptor-linked internalization of agonist, wildtype Y2 receptor; type: cell-based; details: heparin 5 µM, n = 12
T1 sequence (P49146 1-381): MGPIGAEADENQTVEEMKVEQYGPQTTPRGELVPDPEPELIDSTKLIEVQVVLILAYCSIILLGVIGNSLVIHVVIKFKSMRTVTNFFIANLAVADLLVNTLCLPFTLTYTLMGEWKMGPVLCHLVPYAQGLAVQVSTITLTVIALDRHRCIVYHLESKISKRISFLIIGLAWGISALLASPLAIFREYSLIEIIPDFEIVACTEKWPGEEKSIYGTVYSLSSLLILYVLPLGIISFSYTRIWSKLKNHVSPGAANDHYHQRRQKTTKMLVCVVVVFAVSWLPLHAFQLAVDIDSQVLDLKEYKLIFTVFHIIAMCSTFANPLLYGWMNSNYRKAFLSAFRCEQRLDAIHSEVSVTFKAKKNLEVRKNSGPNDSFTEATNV

[4] = target: T2, human neuropeptide Y Y2 receptor, A^34A^35 (Homo sapiens, UniProt P49146, D35A/P34A); test: Receptor-linked internalization of agonist, A^34A^35 mutant; type: cell-based; details: heparin 5 µM, n = 12
T2 sequence (P49146 1-381 P34A/D35A): T1 sequence (P49146 1-381) with P34A, D35A

[5] = test system: CHO cells expressing the A^34A^35 receptor; test: Bio-Gel P-4 gel filtration of internalized agonist, A^34A^35 receptor; details: 100 pM [^125I] peptide YY(3–36); detected by [^125I] label; 2 to 15 min
[6] = test system: human neuropeptide Y Y2 receptor, wildtype; type: cell-based
[7] = target: T2, human neuropeptide Y Y2 receptor, A^34A^35; test: Compartmentalization: unmasking / depletion of surface sites, A^34A^35 mutant; type: cell-based

Q: How did the “loss of cell protein or detachment of cells” value [1] turn out when `C[C@@H]1CC[C@@]2(OC1)O[C@H]1[C@@H](O)[C@H]3[C@@H]4CC[C@H]5C[C@@H](O[C@@H]6O[C@H](CO)[C@H](O[C@@H]7O[C@H](CO)[C@@H](O)[C@H](O[C@@H]8OC[C@@H](O)[C@H](O)[C@H]8O)[C@H]7O[C@@H]7O[C@H](CO)[C@H](O)[C@H](O[C@@H]8O[C@H](CO)[C@@H](O)[C@H](O)[C@H]8O)[C@H]7O)[C@H](O)[C@H]6O)[C@H](O)C[C@]5(C)[C@H]4CC[C@]3(C)[C@H]1[C@@H]2C` [digitonin] was run?
A: Its value is “did not result in a loss of cell protein or a detachment of cells”.

Q: For heparin, which “effect on affinity and capacity of binding of peptide YY(3–36)” value [2] is on record?
A: Its value is “did not affect the affinity and capacity of the binding”.

Q: What about the “increase of internalization of 100 pM [^125I] peptide YY(3–36)” value (“increase of internalization of 100 pM” below) ([3]; 4 min) of the same compound?
A: Its value is 19.4 ± 2%.

Q: What about the “increase of internalization of 100 pM” value ([3]; 10 min) of the same compound?
A: The value was 4.8 ± 1.8%.

Q: And the “increase of internalization of 100 pM” value ([4]; 4 min)?
A: Its value is 43.5 ± 3.5%.

Q: And the “increase of internalization of 100 pM” value ([4]; 10 min)?
A: The value was 25.1 ± 5%.

Q: `N[C@@H](Cc1ccc(O)cc1)C(=O)O` [C-terminal tyrosine, tyrosine] was tested. Which “accumulation of product of peptide YY processing in cells” value [5] did it give?
A: The value was “no accumulation”.

Q: Which results are given for “pertussis toxin: pertussis toxin, used to deplete the compartmentalized surface Y2 sites”?
A: basal cell surface binding of [^125I] peptide YY(3–36) after pertussis toxin [6]: did not substantially reduce; surface sites unmasked by the arsenical after pertussis toxin [6]: strongly reduced; basal cell surface binding of [^125I] peptide YY(3–36) after pertussis toxin [7]: did not substantially reduce; surface sites unmasked by the arsenical after pertussis toxin [7]: almost eliminated
